Measurements: ChEMBL document CHEMBL5233204, “Expanding the repertoire of methanocarba nucleosides from purinergic signaling to diverse targets” (RSC Med Chem, 2021)
Values belong to the molecule of their own block, whether it stands above or below them.

Key:
[1] = target: T1, P-gp (ABCB1) (Homo sapiens, UniProt P08183); test: Inhibition of P-gp (unknown origin) ATPase activity at 10 uM relative to control
[2] = system: Human alphaherpesvirus 1; test: Antiviral activity against HSV-1 by plaque reduction neutralization test; format: functional, organism-based
[3] = system: Human alphaherpesvirus 2; test: Antiviral activity against HSV-2 by plaque reduction neutralization test; format: functional, organism-based
[4] = target: T1, P-gp (ABCB1); test: Activation of P-gp (unknown origin) ATPase activity at 10 uM relative to control; conditions: read-out: Activity

T1 sequence (P08183 whole entry): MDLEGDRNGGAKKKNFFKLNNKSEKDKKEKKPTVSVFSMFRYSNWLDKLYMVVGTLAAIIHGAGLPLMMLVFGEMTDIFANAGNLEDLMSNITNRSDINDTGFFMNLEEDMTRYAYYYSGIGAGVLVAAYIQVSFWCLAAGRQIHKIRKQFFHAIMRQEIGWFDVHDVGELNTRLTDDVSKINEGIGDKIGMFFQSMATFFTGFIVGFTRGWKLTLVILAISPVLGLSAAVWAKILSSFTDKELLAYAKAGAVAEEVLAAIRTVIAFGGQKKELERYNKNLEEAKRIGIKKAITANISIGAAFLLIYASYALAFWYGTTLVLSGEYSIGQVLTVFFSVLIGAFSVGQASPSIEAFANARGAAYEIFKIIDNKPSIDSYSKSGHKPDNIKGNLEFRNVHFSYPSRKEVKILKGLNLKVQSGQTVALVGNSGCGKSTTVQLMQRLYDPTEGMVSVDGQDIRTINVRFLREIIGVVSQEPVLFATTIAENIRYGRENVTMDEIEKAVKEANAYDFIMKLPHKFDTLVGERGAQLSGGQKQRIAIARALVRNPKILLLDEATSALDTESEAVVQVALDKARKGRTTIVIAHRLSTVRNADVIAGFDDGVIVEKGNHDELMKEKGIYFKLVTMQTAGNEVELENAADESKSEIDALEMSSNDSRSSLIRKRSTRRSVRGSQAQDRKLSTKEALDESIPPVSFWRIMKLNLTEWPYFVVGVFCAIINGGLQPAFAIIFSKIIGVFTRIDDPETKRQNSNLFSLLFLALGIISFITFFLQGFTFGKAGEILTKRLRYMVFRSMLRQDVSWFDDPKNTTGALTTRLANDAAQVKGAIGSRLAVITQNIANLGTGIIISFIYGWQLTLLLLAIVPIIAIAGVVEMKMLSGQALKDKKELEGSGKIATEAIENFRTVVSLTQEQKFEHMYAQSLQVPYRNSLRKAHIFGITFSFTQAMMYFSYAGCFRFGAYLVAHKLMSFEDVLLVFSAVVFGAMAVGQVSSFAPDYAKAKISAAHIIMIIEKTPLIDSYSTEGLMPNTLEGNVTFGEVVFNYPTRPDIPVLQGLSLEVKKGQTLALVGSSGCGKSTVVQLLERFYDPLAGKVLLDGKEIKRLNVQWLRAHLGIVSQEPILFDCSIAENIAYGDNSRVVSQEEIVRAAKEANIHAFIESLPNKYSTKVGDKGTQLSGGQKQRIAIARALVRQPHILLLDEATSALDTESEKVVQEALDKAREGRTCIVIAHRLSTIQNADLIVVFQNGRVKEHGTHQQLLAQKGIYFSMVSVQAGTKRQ

inhibition at 10 µM [1]: 53%
SMILES: CNC(=O)[C@]12C[C@@H]1[C@@H](n1cnc3c(N[C@@H]4C[C@H]4c4ccc(F)c(F)c4)nc(C#Cc4ccccc4)nc31)[C@H](O)[C@@H]2O

IC50 [2]: 20 nM | IC50 [3]: 250 nM
SMILES: Cc1cn([C@H]2C[C@H](O)[C@]3(CO)C[C@H]23)c(=O)[nH]c1=O [(NORTH)-METHANOCARBATHYMIDINE]

activity at 10 µM [4]: 31%
SMILES: CNC(=O)[C@]12C[C@@H]1[C@@H](n1cnc3c(NCc4cccc(Cl)c4)nc(C#Cc4ccccc4)nc31)[C@H](O)[C@@H]2O
